Laboratory results taken from patent publication US20180064662A1 (THE GENERAL HOSPITAL CORPORATION, priority 2015, published 2018).

Key:
MCA-IV tumors = test: MCA-IV breast cancer in lean and obese mice, anti-VEGF therapy; format: in vivo, mouse
PAN02 tumors = test: Orthotopic PAN02 PDAC model in obese C57BL/6 mice, metformin in drinking water; format: in vivo, mouse
Description: Wild-type (WT) C57BL/6 and FVB male mice were originally obtained from The Jackson Laboratory (The Jackson Laboratory, Bar Harbor, Me.) and bred and maintained in our defined-flora animal facility. Mice were maintained on a 12-h light-dark cycle in a temperature-controlled barrier facility, with ad libitum access to food and acidified water. To generate obese/diabetic mouse models, mice (6-weeks old) were given a 60% fat diet (D12492, Research Diets, New Brunswick, N.J.) for 10 weeks as previously described (49-51). For tumor experiments, the PAN02 and AK4.4 syngeneic PDAC models were used in C57BL/6 and FVB immunocompetent mice, respectively. PAN02 cells (SMAD4-m174) (52) were obtained from ATCC. AK4.4 cells (KrasG12D and p53^+/−) were isolated from mice generating spontaneous pancreatic tumors (Pt∫1-Cre/LSL-Kras^G12D/p53^Loxi−) (53). Orthotopic pancreatic tumors were generated by implanting a small piece (1 mm^3) of viable tumor tissue (from a source tumor in a separate donor animal) into the pancreas of a 6-8- week-old male lean or obese FVB (AK4.4 model) or C57BL/6 (PAN02 model) mouse. Both tumor models used were authenticated by IDEXX Laboratories. (PAN02: IDEXX RADIL Case # 22366-2013. AK4.4: IDEXX RADIL Case # 27818-2014).
At day 21, plasma and tumor samples were collected, and tumors were weighed and processed for further analysis.
This can be translated to the human equivalent dose by using the Reagan-Shaw method (54). According to the formula for the human equivalent dose [(mg/kg)=animal dose (mg/kg)×animal (km)/human (km). Km for a 60 kg human adults equals 37 and for a 20 g mouse equals 3], the human equivalent of murine dose of 300 mg/kg is 1459 mg for an average sized 60 kg adult human. Therefore, the selected dose in the present study is within the safe therapeutic range recorded in humans. […] This was compatible with the therapeutic periods reported in previous studies (55, 56). […] The amount added to each animal cage was calculated based on the average daily water intake for that cage during a period of 2 weeks prior to treatment initiation, and adjusted every three days based on water consumption and body weight of the animals. […] For in vitro experiments, a range of concentration from 0.05 to 25 mM depending on the cell line used, as discussed below.
Immediately following excision, tumor tissue was snap frozen and stored in liquid nitrogen. Total RNA was extracted and relative gene expression for macrophage M1/M2 markers was determined using a Sybr-green based standard protocol. In addition, total RNA was extracted and relative gene expression was determined using RT2 Profiler PCR Arrays system (Qiagen) on a Stratagene Mx3000P QPCR System using pre-made pathway-focused arrays (“Fibrosis”-Cat. Number: PAMM011Z; “Epithelial to Mesenchymal Transition (EMT)”-Cat. Number: PAMM090Z; “TGF-β signaling targets”-PAMM235Z; “Extracellular Matrix & Adhesion Molecules”-Cat. Number: PAMM013Z; and “Common cytokines ”-Cat. Number: PAMM021Z).
Each tumor sample was homogenized directly in lysis buffer for protein extraction. 20 ug of denatured protein per sample was loaded on 7%, 10% and 12% SDS-polyacrylamide gels. Antibodies used: phospho-p38 MAPKT^180/Y182 and p38; phospho-JNK (SAPK/JNK)^Thr183/Tyr185 and JNK; phospho-AKT^Ser473 and AKT, phospho-ERK(p44/42 MAPK)^T202/Y204 and ERK; phospho-NF-κB^Ser536 and NK-κB; p65^Ser536; phospho-Smad2^Ser465/467 and Smad2; phospho-IGF-I Receptor β^Tyr1135 and IGF; Phospho-IRS-1^Ser612 and IRS; IR; phpspho-stat3^Tyr705 and stat3; Phospho-AMPKα^Thr172 and Ampkα; phospho-Ampkβ^Ser108 and Ampk; phospho-ACC^Ser79 and ACC; Phospho-PDGF Receptor β^Tyr751 and PDGF Receptor β and snail, c-cadherin and vimentin, TGF-β, β-catenin, twist, LC3B. […]

[1] = TAMs from PAN02 tumors in vivo, qPCR
[2] = obese C57BL/6 mice, metformin 300 mg/Kg
[3] = particularly evident in the more metastatic model PAN02

CN(C)C(=N)N=C(N)N [metformin, 3-(diaminomethylidene)-1,1-dimethylguanidine]
FGF-2 gene and protein expression, downstream signaling (MCA-IV tumors; obese animals treated with anti-VEGF): decreases
vessel density (MCA-IV tumors; obese animals treated with anti-VEGF, metformin): decreases
tumor growth response to anti-VEGF (MCA-IV tumors; obese setting, metformin): improved tumor growth response to anti-VEGF
expression of M1 markers in flow-sorted TAMs (PAN02 tumors; [1]): without significantly affecting
expression of M2 marker Arg-1 in flow-sorted TAMs (PAN02 tumors; [1]): 1/2
expression of M2 marker IL-10 in flow-sorted TAMs (PAN02 tumors; [1]): 2/3
activation and phosphorylation of IGFR-1 and IRS-1 in tumors (PAN02 tumors; Western blot): trend for reduced activation and phosphorylation
activation of ACC in tumors (PAN02 tumors; Western blot): increased
expression of the autophagy marker L3CB (PAN02 tumors; Western blot): unchanged
average MMP-2 levels in metformin treated tumors (PAN02 tumors; Western blot, not significant): approximately half
IL-1β in tumors (PAN02 tumors; after metformin treatment): reduction of IL-1β
TAM levels lower with metformin treatment (PAN02 tumors; flow cytometry, not significant): ~30%
activation of STAT3 in whole tumors (PAN02 tumors; [2]): decreased activation of STAT3
p38 activation in whole tumors (PAN02 tumors; [2]): trend for reduced p38
decreased expression of HA (PAN02 tumors; obese C57BL/6 mice, metformin 300 mg/Kg in drinking water, did not reach statistical significance): 40%
reduced density of HA positive activated-PSCs (PAN02 tumors; obese C57BL/6 mice, metformin 300 mg/Kg, did not reach significance): 57%
decreased expression of collagen-I (PAN02 tumors; obese C57BL/6 mice, metformin 300 mg/Kg, did not reach statistical significance): 22%
reduced density of collagen-I positive activated PSCs in tumors (PAN02 tumors; obese C57BL/6 mice, metformin 300 mg/Kg, significant): 54%
average number of mesenteric peritoneal and retroperitoneal wall metastasis per mouse (PAN02 tumors; [3]): reduced
incidence of metastasis (number of mice affected) (PAN02 tumors; [3]): reduced the incidence of metastasis
body weight (PAN02 tumors; tumor-bearing mice): no change in body weight
